Data: paper PMC6540056, “A Thermostable Aspergillus fumigatus GH7 Endoglucanase Over-Expressed in Pichia pastoris Stimulates Lignocellulosic Biomass Hydrolysis” (International Journal of Molecular Sciences, 2019)

Target: T1, Af-EGL7 (Aspergillus fumigatus, UniProt Q4WCM9)
T1 construct: gene AFUA_6G01800; ORF without predicted signal peptide in pPICZalphaA, alpha-factor secretion signal, C-terminal vector tag with His6 kept, from Pichia pastoris X-33, N-glycosylated, about 70 kDa on SDS-PAGE; forward primer encodes EF-QQPAA at N-terminus
T1 sequence (Q4WCM9 21-460): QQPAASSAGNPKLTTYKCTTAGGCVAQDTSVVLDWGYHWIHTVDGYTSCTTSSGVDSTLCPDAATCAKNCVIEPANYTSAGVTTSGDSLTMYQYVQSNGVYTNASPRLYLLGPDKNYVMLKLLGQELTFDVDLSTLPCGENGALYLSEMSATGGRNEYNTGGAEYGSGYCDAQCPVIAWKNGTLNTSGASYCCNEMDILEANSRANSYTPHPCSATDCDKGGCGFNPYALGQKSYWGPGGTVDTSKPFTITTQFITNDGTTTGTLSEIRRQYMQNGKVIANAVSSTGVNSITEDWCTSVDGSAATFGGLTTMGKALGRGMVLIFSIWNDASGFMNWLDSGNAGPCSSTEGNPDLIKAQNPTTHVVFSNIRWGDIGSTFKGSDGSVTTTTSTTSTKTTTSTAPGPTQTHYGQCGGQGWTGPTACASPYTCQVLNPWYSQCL
Assay: colorimetric, Azo-Xyloglucan hydrolysis, […] nm
Assay type: biochemical
Details: read-out: % inhibition at 50 mM

In the case of OC[C@H]1O[C@@H](O[C@H]2[C@H](O)[C@@H](O)C(O)O[C@@H]2CO)[C@H](O)[C@@H](O)[C@@H]1O (stereo partly shown) [cellobiose], the inhibition at 50000 µM is reported as 35%.
